Source: patent publication US9315491B2 (DEVELOPMENT CENTER FOR BIOTECHNOLOGY, priority 2009, dated 2016)

Tests used:
PC-3 cells = assay: Antiproliferation assay (MTS), PC-3; format: cell-based; conditions: Homo sapiens, PC3, 72 hours of drug treatment
Protocol: (1) Antiproliferation Assay
PC-3, U-87 MG, HCC1954 and BT474 cell lines were purchased from the American Type Culture Collection (ATCC, USA). PC-3 was grown in F12K medium (GIBCO) containing 10% FBS. U-87 MG was grown in Eagle's minimum essential medium (MEM, Sigma) supplemented with nonessential amino acids, L-glutamine, sodium pyruvate, and 10% FBS. HCC1954 was grown in RPMI medium (GIBCO) containing 10% FBS. […] All cells were incubated in a humidified atmosphere containing 5% CO2 at 37° C.
Cell lines were inoculated to the wells of a 96-well culture plate with 1000-5000 cells per well. The compounds were prepared and used to treat cells with less than 1% DMSO. After 72 hours of drug treatment, the viability of each cell line was examined by CellTiter 96 Aqueous Non-Radioactive Cell Proliferation Assay (Promega). The living cells were detectable by conversion of MTS into aqueous, soluble formazan. MTS/PMS solution was freshly prepared and 20 μl of MTS/PMS solution was added to each well of the 96-well cultured plate. The assay plate was incubated for 3 hours and the absorbance at 490 nm was measured by EMax ELISA Reader (Molecular Devices). The IC50 values of compounds were determined after carrying out assays at eight serially diluted concentrations of each compound in triplicate, and are the mean of three separate determinations. The results were analyzed using linear regression software (GraphPad Prism 5; GraphPad Software Inc.).

recombinant mTOR = recombinant mTOR (Homo sapiens (Human), UniProt P42345); assay: mTOR kinase assay (33P incorporation into 4EBP1); format: biochemical; conditions: compound at 10 μM, 10 μM ATP
recombinant mTOR, sequence (P42345 1360-2549): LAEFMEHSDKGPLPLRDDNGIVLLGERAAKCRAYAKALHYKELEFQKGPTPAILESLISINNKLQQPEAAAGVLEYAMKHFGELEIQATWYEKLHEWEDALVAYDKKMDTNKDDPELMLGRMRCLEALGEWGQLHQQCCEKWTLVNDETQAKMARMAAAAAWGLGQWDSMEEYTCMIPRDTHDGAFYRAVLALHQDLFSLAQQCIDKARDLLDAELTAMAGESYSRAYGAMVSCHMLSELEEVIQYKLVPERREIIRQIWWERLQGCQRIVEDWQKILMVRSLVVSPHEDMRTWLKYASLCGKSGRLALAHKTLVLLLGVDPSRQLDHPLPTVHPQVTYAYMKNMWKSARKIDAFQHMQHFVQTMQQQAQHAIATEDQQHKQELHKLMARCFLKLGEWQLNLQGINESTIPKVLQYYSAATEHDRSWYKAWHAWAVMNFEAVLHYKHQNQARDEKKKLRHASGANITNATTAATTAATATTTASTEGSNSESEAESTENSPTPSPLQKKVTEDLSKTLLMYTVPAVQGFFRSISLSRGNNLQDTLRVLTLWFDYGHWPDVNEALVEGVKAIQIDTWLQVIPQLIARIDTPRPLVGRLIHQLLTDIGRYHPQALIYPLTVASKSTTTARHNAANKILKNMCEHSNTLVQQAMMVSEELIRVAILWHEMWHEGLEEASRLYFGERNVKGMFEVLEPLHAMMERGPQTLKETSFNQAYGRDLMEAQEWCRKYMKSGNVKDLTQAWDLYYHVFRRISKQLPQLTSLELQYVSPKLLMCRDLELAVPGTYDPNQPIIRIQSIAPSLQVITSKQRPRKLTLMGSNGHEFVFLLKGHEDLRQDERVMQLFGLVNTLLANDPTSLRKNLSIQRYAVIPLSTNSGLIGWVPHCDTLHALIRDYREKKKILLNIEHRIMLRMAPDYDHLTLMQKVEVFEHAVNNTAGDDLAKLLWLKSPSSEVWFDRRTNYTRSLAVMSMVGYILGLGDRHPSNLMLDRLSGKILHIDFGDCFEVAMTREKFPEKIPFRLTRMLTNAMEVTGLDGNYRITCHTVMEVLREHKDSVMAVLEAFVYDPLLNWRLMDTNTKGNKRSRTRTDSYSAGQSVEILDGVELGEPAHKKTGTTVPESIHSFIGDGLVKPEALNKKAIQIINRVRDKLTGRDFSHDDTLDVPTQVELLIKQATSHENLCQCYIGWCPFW
Summary of the method: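 Recombinant human mTOR (50 ng) phosphorylated His-tagged 4EBP1 (300 ng) with 10 μM ATP plus [γ-33P]-ATP in HEPES pH 7.5, MnCl2, EGTA and DTT for 30 min at 30° C. Labelled 4EBP1 was filter-captured and counted. IC50 was derived from eight-point duplicate dilution series.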

A549 cells = assay: Antiproliferation assay (MTS), A549; format: cell-based; conditions: Homo sapiens; A549, 72 hours of drug treatment
PI3K (p110α/p85α) = PI3K (p110α/p85α) (Homo sapiens (Human), UniProt P42336); assay: PI3K HTRF enzyme assay, p110α/p85α; format: biochemical; conditions: read-out: % inhibition @ 500 nM p110α; compound at 500 nM, 10 μM ATP
PI3K (p110α/p85α), sequence (P42336 whole entry, species assumed): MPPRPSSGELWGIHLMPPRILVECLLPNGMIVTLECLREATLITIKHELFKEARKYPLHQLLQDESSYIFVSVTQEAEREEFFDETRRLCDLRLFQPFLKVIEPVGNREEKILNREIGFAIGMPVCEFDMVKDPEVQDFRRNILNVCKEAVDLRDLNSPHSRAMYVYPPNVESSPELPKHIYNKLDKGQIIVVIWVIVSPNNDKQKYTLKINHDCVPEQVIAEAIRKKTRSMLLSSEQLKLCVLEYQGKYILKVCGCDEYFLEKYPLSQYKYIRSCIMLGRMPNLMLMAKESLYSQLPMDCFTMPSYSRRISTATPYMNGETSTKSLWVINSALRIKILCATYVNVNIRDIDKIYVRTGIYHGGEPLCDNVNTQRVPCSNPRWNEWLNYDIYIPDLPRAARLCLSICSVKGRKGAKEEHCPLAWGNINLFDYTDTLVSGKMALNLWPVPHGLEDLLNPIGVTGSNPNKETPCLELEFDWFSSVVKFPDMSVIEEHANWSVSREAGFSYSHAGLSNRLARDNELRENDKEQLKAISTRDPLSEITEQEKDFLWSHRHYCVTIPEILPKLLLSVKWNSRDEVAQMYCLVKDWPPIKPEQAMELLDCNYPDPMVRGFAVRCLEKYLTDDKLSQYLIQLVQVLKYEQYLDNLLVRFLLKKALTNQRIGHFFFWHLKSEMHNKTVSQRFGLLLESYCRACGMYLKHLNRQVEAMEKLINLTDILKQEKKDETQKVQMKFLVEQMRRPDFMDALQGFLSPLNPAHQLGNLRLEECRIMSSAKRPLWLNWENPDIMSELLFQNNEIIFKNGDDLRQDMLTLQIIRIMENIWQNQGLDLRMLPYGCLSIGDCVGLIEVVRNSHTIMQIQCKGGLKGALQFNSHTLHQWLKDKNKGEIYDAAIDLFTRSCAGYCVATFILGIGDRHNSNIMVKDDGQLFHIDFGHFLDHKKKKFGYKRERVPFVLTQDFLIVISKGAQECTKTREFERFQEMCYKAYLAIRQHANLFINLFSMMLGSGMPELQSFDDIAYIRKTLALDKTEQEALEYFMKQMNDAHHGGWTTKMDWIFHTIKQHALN
PI3K (p110α/p85α), sequence (P27986 whole entry partner, species assumed): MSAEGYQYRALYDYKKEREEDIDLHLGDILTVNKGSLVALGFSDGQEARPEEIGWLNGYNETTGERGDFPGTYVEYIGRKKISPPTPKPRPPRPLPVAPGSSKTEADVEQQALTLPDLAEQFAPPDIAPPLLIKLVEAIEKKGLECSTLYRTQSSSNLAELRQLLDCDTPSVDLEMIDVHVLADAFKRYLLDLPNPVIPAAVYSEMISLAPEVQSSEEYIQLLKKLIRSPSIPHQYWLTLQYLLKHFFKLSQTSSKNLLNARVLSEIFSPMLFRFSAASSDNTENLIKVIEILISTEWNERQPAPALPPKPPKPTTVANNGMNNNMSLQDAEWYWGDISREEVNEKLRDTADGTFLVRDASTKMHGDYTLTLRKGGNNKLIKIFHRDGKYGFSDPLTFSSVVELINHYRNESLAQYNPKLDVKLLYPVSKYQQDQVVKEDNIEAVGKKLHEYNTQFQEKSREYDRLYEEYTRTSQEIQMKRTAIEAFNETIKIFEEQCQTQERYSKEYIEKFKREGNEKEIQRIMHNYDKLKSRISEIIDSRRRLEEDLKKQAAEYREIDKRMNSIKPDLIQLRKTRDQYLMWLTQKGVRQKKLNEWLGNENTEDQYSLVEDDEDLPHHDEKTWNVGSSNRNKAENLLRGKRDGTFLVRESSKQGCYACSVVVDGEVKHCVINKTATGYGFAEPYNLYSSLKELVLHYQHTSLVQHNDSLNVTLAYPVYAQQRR
Summary of the method: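 Recombinant PI3K heterodimers with PIP2 substrate; reactions ran 30 min at room temperature with 10 μM ATP for p110α/p85α and 100 μM ATP for p110β/p85α. After stop, HTRF detection followed 17 h incubation in the dark at room temperature; HTRF ratio used as read-out.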

PI3K (p110β/p85α) = PI3K (p110β/p85α) (Homo sapiens (Human), UniProt P42338); assay: PI3K HTRF enzyme assay, p110β/p85α; format: biochemical; conditions: read-out: % inhibition @ 500 nM p110β; compound at 500 nM, 100 μM ATP
PI3K (p110β/p85α), sequence (P42338 whole entry, species assumed): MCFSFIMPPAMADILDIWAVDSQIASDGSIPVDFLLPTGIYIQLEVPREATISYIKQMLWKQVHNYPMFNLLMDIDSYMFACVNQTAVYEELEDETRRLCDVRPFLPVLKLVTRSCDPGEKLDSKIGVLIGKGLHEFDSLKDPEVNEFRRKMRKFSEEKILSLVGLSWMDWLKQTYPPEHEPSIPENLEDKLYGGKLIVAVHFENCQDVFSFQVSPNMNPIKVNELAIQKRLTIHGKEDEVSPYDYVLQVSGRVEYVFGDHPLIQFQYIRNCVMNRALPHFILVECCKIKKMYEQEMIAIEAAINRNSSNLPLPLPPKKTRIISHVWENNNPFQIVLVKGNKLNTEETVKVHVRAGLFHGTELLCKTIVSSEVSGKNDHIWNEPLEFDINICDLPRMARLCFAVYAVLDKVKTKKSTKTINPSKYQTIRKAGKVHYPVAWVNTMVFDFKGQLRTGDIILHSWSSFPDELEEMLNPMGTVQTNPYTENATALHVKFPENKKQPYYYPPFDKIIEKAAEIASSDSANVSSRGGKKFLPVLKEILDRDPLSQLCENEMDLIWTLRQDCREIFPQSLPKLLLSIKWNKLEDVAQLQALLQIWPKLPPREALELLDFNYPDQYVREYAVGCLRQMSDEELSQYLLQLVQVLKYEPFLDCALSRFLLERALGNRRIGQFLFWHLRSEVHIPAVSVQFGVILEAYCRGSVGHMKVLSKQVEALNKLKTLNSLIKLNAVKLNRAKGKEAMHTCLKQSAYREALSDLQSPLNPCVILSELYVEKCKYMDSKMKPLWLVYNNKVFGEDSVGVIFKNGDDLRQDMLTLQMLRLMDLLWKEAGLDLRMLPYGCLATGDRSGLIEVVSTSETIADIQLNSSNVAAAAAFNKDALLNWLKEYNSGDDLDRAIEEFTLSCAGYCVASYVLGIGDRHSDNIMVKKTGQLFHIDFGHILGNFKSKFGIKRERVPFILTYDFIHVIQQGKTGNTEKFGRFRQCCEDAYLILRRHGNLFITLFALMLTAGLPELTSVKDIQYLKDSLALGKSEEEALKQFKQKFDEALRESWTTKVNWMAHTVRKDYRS
PI3K (p110β/p85α), sequence (P27986 whole entry partner, species assumed): as the sequence (P27986 whole entry partner, species assumed) above
Protocol: Recombinant PI3K (p110α/p85α) and PI3K (p110β/p85α) were from Millipore. […] Briefly, the compounds of interest dissolved in 100% DMSO were dispensed in all wells, following which the mixture of PIP2 and enzyme was added. PI3K (p110α/p85α) and PI3K (p110β/p85α) enzyme reactions were initiated in the presence of 10 μM and 100 μM ATP, respectively, and incubated for 30 min at room temperature. STOP solution prepared 2 hours prior to use was added to stop reactions, and mixed well. Detection solution prepared 2 hours prior to use was added, and incubated at room temperature for 17 hours in the dark. […] HTRF ration was calculated as follows: […]

p-Akt S473 (mTORC2) = assay: Immunoblotting, PI3K/Akt/mTOR signal transduction, p-Akt S473; format: cell-based; conditions: Homo sapiens; PC-3 cell
Source text: (§1) For immunoblotting experiments, A549 cells were inoculated to the wells of a 6-well culture plate and cultured overnight. […] Proteins were separated by SDS-PAGE electrophoresis and transferred to PVDF membrane. Protein expression was immunobloted by various primary antibodies and detected by Immobilon Western Chemiluminescent HRP Substrate (Millipore). Antibody against Akt, phosphor-Akt (Ser473), phosphor-Akt (Thr308), p70 S6 Kinase, phosphor-p70 S6 Kinase (Thr389), 4E-BP1, and phosphor-4E-BP1 (Thr37/46) were purchased form Cell Signaling Technology.

p-S6K (mTORC1) = assay: Immunoblotting, PI3K/Akt/mTOR signal transduction, p-S6K; format: cell-based; conditions: Homo sapiens; PC-3 cell
Source text: as §1

p-Akt T308 (PI3K) = assay: Immunoblotting, PI3K/Akt/mTOR signal transduction, p-Akt T308; format: cell-based; conditions: Homo sapiens; PC-3 cell
Source text: as §1

Row | SMILES | IC50 (PC-3 cells) [nM] | inhibition at 10 µM (recombinant mTOR) [%] | IC50 (A549 cells) [nM] | inhibition at 0.5 µM (PI3K (p110α/p85α)) [%] | inhibition at 0.5 µM (PI3K (p110β/p85α)) [%] | IC50 (p-Akt S473 (mTORC2)) [nM] | IC50 (p-S6K (mTORC1)) [nM] | IC50 (p-Akt T308 (PI3K)) [nM]
1 | COc1cnc(-c2ccc(NC(=O)Nc3ccc(N)cc3)cc2)nc1N1CCOCC1 [MTR-0350, 1-(4-Amino-phenyl)-3-[4-(5-methoxy-4-morpholin-4-yl-pyrimidin-2-yl)-phenyl]-urea] | 188 ± 6 | 95 | 614 ± 28 | – | – | – | – | –
2 | COc1cnc(-c2ccc(NC(=S)Nc3cccc(F)c3)cc2)nc1N1CCOCC1 [MTR-0168, 1-(3-Fluoro-phenyl)-3-[4-(5-methoxy-4-morpholin-4-yl-pyrimidin-2-yl)-phenyl]-thiourea] | – | 91 | – | 65 | 20.2 | – | – | –
3 | CSc1c(Cl)nc(-c2ccc(N)nc2)nc1N1CCOCC1 [MTR-0133, 5-(4-Chloro-5-methylsulfanyl-6-morpholin-4-yl-pyrimidin-2-yl)-pyridin-2-ylamine] | – | 93 | – | 70 | 4.5 | – | – | –
4 | CCOc1cnc(-c2ccc(NC(=O)Nc3ccc(N4CCOCC4=O)cc3)cc2)nc1-c1ccncc1 [MTR-0398, 1-[4-(5-Ethoxy-4-pyridin-4-yl-pyrimidin-2-yl)-phenyl]-3-[4-(3-oxo-morpholin-4-yl)-phenyl]-urea] | 179 ± 14 | 89 | 460 ± 28 | 47 | – | – | – | –
5 | CCOc1c(C(=O)N2CCN(S(C)(=O)=O)CC2)nc(-c2ccc(NC(=O)Nc3ccccc3)cc2)nc1N1CCOCC1 [MTR-0145, 1-{4-[5-Ethoxy-4-(4-methanesulfonyl-piperazine-1-carbonyl)-6-morpholin-4-yl-pyrimidin-2-yl]-phenyl}-3-phenyl-urea] | 432 ± 20 | 100 | 1360 ± 340 | – | – | – | – | –
6 | CSc1cnc(-c2ccc(NC(=O)Nc3cccc(NC(C)=O)c3)cc2)nc1N1CCOCC1 [MTR-0377, N-(3-{3-[4-(5-Methylsulfanyl-4-morpholin-4-yl-pyrimidin-2-yl)-phenyl]-ureido}-phenyl)-acetamide] | 205 ± 6 | 97 | 598 ± 18 | – | – | – | – | –
7 | CSc1c(Cl)nc(-c2ccc(NC(=O)Nc3ccc(F)cc3)cc2)nc1N1CCOCC1 [MTR-0135, 1-[4-(4-Chloro-5-methylsulfanyl-6-morpholin-4-yl-pyrimidin-2-yl)-phenyl]-3-(4-fluoro-phenyl)-urea] | – | 90 | – | 70.1 | 14.2 | – | – | –
8 | Cn1c(=O)n(-c2ccc(C(C)(C)C#N)cc2)c2c3cc(-c4cnc5ccccc5c4)ccc3ncc21 [BEZ-235] | – | – | – | – | – | 28.9 | < 10 | –
9 | CCOc1c(C(=O)N2CCOCC2)nc(-c2ccc(NC(=O)Nc3ccc(N4CCOCC4=O)cc3)cc2)nc1N1CCOCC1 [MTR-0280, 1-{4-[5-Ethoxy-4-(morpholine-4-carbonyl)-6-morpholin-4-yl-pyrimidin-2-yl]-phenyl}-3-[4-(3-oxo-morpholin-4-yl)-phenyl]-urea] | 126 ± 8 | 95 | 382 ± 23 | – | – | – | – | –
10 | Oc1cccc(-c2nc(N3CCOCC3)c3oc4ncccc4c3n2)c1 [PI-103] | – | – | – | – | – | 35.6 | 64.9 | –
11 | CS(=O)(=O)N1CCN(Cc2cc3nc(-c4cccc5[nH]ncc45)nc(N4CCOCC4)c3s2)CC1 [GDC-0941] | – | – | – | – | – | 11.5 | 451 | –
12 | CO[C@H]1C[C@@H]2CC[C@@H](C)[C@@](O)(O2)C(=O)C(=O)N2CCCC[C@H]2C(=O)O[C@H]([C@H](C)C[C@@H]2CC[C@@H](O)[C@H](OC)C2)CC(=O)[C@H](C)/C=C(\C)[C@@H](O)[C@@H](OC)C(=O)[C@H](C)C[C@H](C)/C=C/C=C/C=C/1C [Rapamycin, rapamycin, reference compound] | – | – | – | – | – | < 10 | < 10 | > 1000
